Reference: the NIST ThermoML archive (doi:10.1016/j.jct.2016.08.008)
± gives the expanded uncertainty stated by the source.

Assay: activity coefficient (dimensionless); of the first substance listed, at infinite dilution; xn = mol fraction of the nth substance listed
Details: 338.15 K; 101.33 kPa; Liquid; Chromatography; x1 = 0

CCCCCO [pentan-1-ol] + CCCCCCCCCCCCn1cc[n+](C)c1.O=S(=O)([N-]S(=O)(=O)C(F)(F)F)C(F)(F)F and CCCO [propan-1-ol] + CCCCCCCCCCCCn1cc[n+](C)c1.O=S(=O)([N-]S(=O)(=O)C(F)(F)F)C(F)(F)F are within error of each other in activity coefficient: 1.4 ± 0.09 for the first, 1.29 ± 0.08 for the second.

CCCC(C)=O [pentan-2-one] + CCCCCCCCCCCCn1cc[n+](C)c1.O=S(=O)([N-]S(=O)(=O)C(F)(F)F)C(F)(F)F and CCC(=O)CC [pentan-3-one] + CCCCCCCCCCCCn1cc[n+](C)c1.O=S(=O)([N-]S(=O)(=O)C(F)(F)F)C(F)(F)F are within error of each other in activity coefficient: 0.468 ± 0.037 for the first, 0.47 ± 0.037 for the second.

Compared with CCCCC [pentane] + CCCCCCCCCCCCn1cc[n+](C)c1.O=S(=O)([N-]S(=O)(=O)C(F)(F)F)C(F)(F)F, CCCc1ccccc1 [propylbenzene] + CCCCCCCCCCCCn1cc[n+](C)c1.O=S(=O)([N-]S(=O)(=O)C(F)(F)F)C(F)(F)F is lower in activity coefficient: 2.66 ± 0.18 for the first, 1.21 ± 0.08 for the second.

Compared with CC(C)O [propan-2-ol] + CCCCCCCCCCCCn1cc[n+](C)c1.O=S(=O)([N-]S(=O)(=O)C(F)(F)F)C(F)(F)F, Cc1ccccc1 [toluene] + CCCCCCCCCCCCn1cc[n+](C)c1.O=S(=O)([N-]S(=O)(=O)C(F)(F)F)C(F)(F)F is lower in activity coefficient: 1.18 ± 0.08 for the first, 0.765 ± 0.05 for the second.

Going from c1ccncc1 [pyridine] + CCCCCCCCCCCCn1cc[n+](C)c1.O=S(=O)([N-]S(=O)(=O)C(F)(F)F)C(F)(F)F to C=Cc1ccccc1 [styrene] + CCCCCCCCCCCCn1cc[n+](C)c1.O=S(=O)([N-]S(=O)(=O)C(F)(F)F)C(F)(F)F, the activity coefficient rises from 0.42 ± 0.04 to 0.702 ± 0.047.

Compared with C1CCOC1 [tetrahydrofuran] + CCCCCCCCCCCCn1cc[n+](C)c1.O=S(=O)([N-]S(=O)(=O)C(F)(F)F)C(F)(F)F, c1ccsc1 [thiophene] + CCCCCCCCCCCCn1cc[n+](C)c1.O=S(=O)([N-]S(=O)(=O)C(F)(F)F)C(F)(F)F is higher in activity coefficient: 0.44 ± 0.04 for the first, 0.6 ± 0.042 for the second.

O [water] + CCCCCCCCCCCCn1cc[n+](C)c1.O=S(=O)([N-]S(=O)(=O)C(F)(F)F)C(F)(F)F gave an activity coefficient of 3.64 ± 0.25.

Same assay, conditions: 348.15 K; 101.33 kPa; Liquid; Chromatography; x1 = 0

Compared with C1CCCC1 [cyclopentane] + CCCCCCCCCCCCn1cc[n+](C)c1.O=S(=O)([N-]S(=O)(=O)C(F)(F)F)C(F)(F)F, CC1CCCCC1 [methylcyclohexane] + CCCCCCCCCCCCn1cc[n+](C)c1.O=S(=O)([N-]S(=O)(=O)C(F)(F)F)C(F)(F)F is higher in activity coefficient: 1.82 ± 0.12 for the first, 2.52 ± 0.17 for the second.

Going from CCCCCCCCCC [decane] + CCCCCCCCCCCCn1cc[n+](C)c1.O=S(=O)([N-]S(=O)(=O)C(F)(F)F)C(F)(F)F to CCCCCCCCC [nonane] + CCCCCCCCCCCCn1cc[n+](C)c1.O=S(=O)([N-]S(=O)(=O)C(F)(F)F)C(F)(F)F, the activity coefficient falls from 6 ± 0.41 to 5.08 ± 0.35.

Compared with CCOCC [diethyl ether] + CCCCCCCCCCCCn1cc[n+](C)c1.O=S(=O)([N-]S(=O)(=O)C(F)(F)F)C(F)(F)F, CCCOCCC [dipropyl ether] + CCCCCCCCCCCCn1cc[n+](C)c1.O=S(=O)([N-]S(=O)(=O)C(F)(F)F)C(F)(F)F is higher in activity coefficient: 1.12 ± 0.07 for the first, 1.84 ± 0.12 for the second.

Compared with CC(C)OC(C)C [diisopropyl ether] + CCCCCCCCCCCCn1cc[n+](C)c1.O=S(=O)([N-]S(=O)(=O)C(F)(F)F)C(F)(F)F, CC(C)O [propan-2-ol] + CCCCCCCCCCCCn1cc[n+](C)c1.O=S(=O)([N-]S(=O)(=O)C(F)(F)F)C(F)(F)F is lower in activity coefficient: 1.86 ± 0.13 for the first, 1.12 ± 0.07 for the second.

CCO [ethanol] + CCCCCCCCCCCCn1cc[n+](C)c1.O=S(=O)([N-]S(=O)(=O)C(F)(F)F)C(F)(F)F and CCCO [propan-1-ol] + CCCCCCCCCCCCn1cc[n+](C)c1.O=S(=O)([N-]S(=O)(=O)C(F)(F)F)C(F)(F)F are within error of each other in activity coefficient: 1.17 ± 0.07 for the first, 1.22 ± 0.08 for the second.

CCOC(C)=O [ethyl acetate] + CCCCCCCCCCCCn1cc[n+](C)c1.O=S(=O)([N-]S(=O)(=O)C(F)(F)F)C(F)(F)F and COC(C)=O [methyl ethanoate] + CCCCCCCCCCCCn1cc[n+](C)c1.O=S(=O)([N-]S(=O)(=O)C(F)(F)F)C(F)(F)F are within error of each other in activity coefficient: 0.619 ± 0.043 for the first, 0.566 ± 0.041 for the second.

Going from CCc1ccccc1 [ethylbenzene] + CCCCCCCCCCCCn1cc[n+](C)c1.O=S(=O)([N-]S(=O)(=O)C(F)(F)F)C(F)(F)F to CCCc1ccccc1 [propylbenzene] + CCCCCCCCCCCCn1cc[n+](C)c1.O=S(=O)([N-]S(=O)(=O)C(F)(F)F)C(F)(F)F, the activity coefficient rises from 1.03 ± 0.06 to 1.25 ± 0.08.

Compared with CCCCCCC [heptane] + CCCCCCCCCCCCn1cc[n+](C)c1.O=S(=O)([N-]S(=O)(=O)C(F)(F)F)C(F)(F)F, CCCCCCCC [octane] + CCCCCCCCCCCCn1cc[n+](C)c1.O=S(=O)([N-]S(=O)(=O)C(F)(F)F)C(F)(F)F is higher in activity coefficient: 3.7 ± 0.25 for the first, 4.32 ± 0.29 for the second.

Compared with C=CCCCC [hex-1-ene] + CCCCCCCCCCCCn1cc[n+](C)c1.O=S(=O)([N-]S(=O)(=O)C(F)(F)F)C(F)(F)F, C=CCCCCCC [oct-1-ene] + CCCCCCCCCCCCn1cc[n+](C)c1.O=S(=O)([N-]S(=O)(=O)C(F)(F)F)C(F)(F)F is higher in activity coefficient: 2.29 ± 0.16 for the first, 3.23 ± 0.22 for the second.

First: CCCCCC [hexane] + CCCCCCCCCCCCn1cc[n+](C)c1.O=S(=O)([N-]S(=O)(=O)C(F)(F)F)C(F)(F)F
Second: CCCCC [pentane] + CCCCCCCCCCCCn1cc[n+](C)c1.O=S(=O)([N-]S(=O)(=O)C(F)(F)F)C(F)(F)F
The activity coefficient of the first is higher: 3.14 ± 0.21 for the first, 2.71 ± 0.18 for the second.

First: CC(C)c1ccccc1 [isopropylbenzene] + CCCCCCCCCCCCn1cc[n+](C)c1.O=S(=O)([N-]S(=O)(=O)C(F)(F)F)C(F)(F)F
Second: Cc1ccccc1 [toluene] + CCCCCCCCCCCCn1cc[n+](C)c1.O=S(=O)([N-]S(=O)(=O)C(F)(F)F)C(F)(F)F
The activity coefficient of the first is higher: 1.28 ± 0.08 for the first, 0.8 ± 0.052 for the second.

First: CO [methanol] + CCCCCCCCCCCCn1cc[n+](C)c1.O=S(=O)([N-]S(=O)(=O)C(F)(F)F)C(F)(F)F
Second: CCC(=O)OC [methyl propanoate] + CCCCCCCCCCCCn1cc[n+](C)c1.O=S(=O)([N-]S(=O)(=O)C(F)(F)F)C(F)(F)F
The activity coefficient of the first is higher: 1.1 ± 0.07 for the first, 0.608 ± 0.043 for the second.

First: CCCC(=O)OC [methyl butanoate] + CCCCCCCCCCCCn1cc[n+](C)c1.O=S(=O)([N-]S(=O)(=O)C(F)(F)F)C(F)(F)F
Second: CCCC(C)=O [pentan-2-one] + CCCCCCCCCCCCn1cc[n+](C)c1.O=S(=O)([N-]S(=O)(=O)C(F)(F)F)C(F)(F)F
The activity coefficient of the first is higher: 0.704 ± 0.047 for the first, 0.492 ± 0.037 for the second.

First: CCCCCO [pentan-1-ol] + CCCCCCCCCCCCn1cc[n+](C)c1.O=S(=O)([N-]S(=O)(=O)C(F)(F)F)C(F)(F)F
Second: CCC(=O)CC [pentan-3-one] + CCCCCCCCCCCCn1cc[n+](C)c1.O=S(=O)([N-]S(=O)(=O)C(F)(F)F)C(F)(F)F
The activity coefficient of the first is higher: 1.35 ± 0.09 for the first, 0.496 ± 0.038 for the second.

Compared with c1ccncc1 [pyridine] + CCCCCCCCCCCCn1cc[n+](C)c1.O=S(=O)([N-]S(=O)(=O)C(F)(F)F)C(F)(F)F, C=Cc1ccccc1 [styrene] + CCCCCCCCCCCCn1cc[n+](C)c1.O=S(=O)([N-]S(=O)(=O)C(F)(F)F)C(F)(F)F is higher in activity coefficient: 0.435 ± 0.035 for the first, 0.736 ± 0.049 for the second.

Compared with C1CCOC1 [tetrahydrofuran] + CCCCCCCCCCCCn1cc[n+](C)c1.O=S(=O)([N-]S(=O)(=O)C(F)(F)F)C(F)(F)F, c1ccsc1 [thiophene] + CCCCCCCCCCCCn1cc[n+](C)c1.O=S(=O)([N-]S(=O)(=O)C(F)(F)F)C(F)(F)F is higher in activity coefficient: 0.462 ± 0.036 for the first, 0.62 ± 0.043 for the second.

O [water] + CCCCCCCCCCCCn1cc[n+](C)c1.O=S(=O)([N-]S(=O)(=O)C(F)(F)F)C(F)(F)F showed an activity coefficient of 3.31 ± 0.23.

Same assay, conditions: 358.15 K; 101.33 kPa; Liquid; Chromatography; x1 = 0

Going from C1CCCC1 [cyclopentane] + CCCCCCCCCCCCn1cc[n+](C)c1.O=S(=O)([N-]S(=O)(=O)C(F)(F)F)C(F)(F)F to CCCCCCCCCC [decane] + CCCCCCCCCCCCn1cc[n+](C)c1.O=S(=O)([N-]S(=O)(=O)C(F)(F)F)C(F)(F)F, the activity coefficient rises from 1.84 ± 0.12 to 6.06 ± 0.41.

Going from CCOCC [diethyl ether] + CCCCCCCCCCCCn1cc[n+](C)c1.O=S(=O)([N-]S(=O)(=O)C(F)(F)F)C(F)(F)F to CCCOCCC [dipropyl ether] + CCCCCCCCCCCCn1cc[n+](C)c1.O=S(=O)([N-]S(=O)(=O)C(F)(F)F)C(F)(F)F, the activity coefficient rises from 1.16 ± 0.07 to 1.89 ± 0.13.

Going from CC(C)OC(C)C [diisopropyl ether] + CCCCCCCCCCCCn1cc[n+](C)c1.O=S(=O)([N-]S(=O)(=O)C(F)(F)F)C(F)(F)F to CCOC(C)=O [ethyl acetate] + CCCCCCCCCCCCn1cc[n+](C)c1.O=S(=O)([N-]S(=O)(=O)C(F)(F)F)C(F)(F)F, the activity coefficient falls from 1.93 ± 0.13 to 0.645 ± 0.044.

Compared with CCO [ethanol] + CCCCCCCCCCCCn1cc[n+](C)c1.O=S(=O)([N-]S(=O)(=O)C(F)(F)F)C(F)(F)F, C=CCCCC [hex-1-ene] + CCCCCCCCCCCCn1cc[n+](C)c1.O=S(=O)([N-]S(=O)(=O)C(F)(F)F)C(F)(F)F is higher in activity coefficient: 1.11 ± 0.07 for the first, 2.34 ± 0.16 for the second.

Compared with CCc1ccccc1 [ethylbenzene] + CCCCCCCCCCCCn1cc[n+](C)c1.O=S(=O)([N-]S(=O)(=O)C(F)(F)F)C(F)(F)F, CCCCCCC [heptane] + CCCCCCCCCCCCn1cc[n+](C)c1.O=S(=O)([N-]S(=O)(=O)C(F)(F)F)C(F)(F)F is higher in activity coefficient: 1.07 ± 0.07 for the first, 3.74 ± 0.25 for the second.
